Experimental data from article PMC9200803, “Design, synthesis, and biological evaluation of tetrahydroquinolinones and tetrahydroquinolines with anticancer activity” (Scientific Reports, 2022).

Assays:
HCT-116 cells = assay: MTT cell viability assay, HCT-116; format: cell-based, human; conditions: 72 h; for IC50: MTT, IC50 ± SD; for cytotoxicity on tested cell lines: HCT-116, MCF-7, A-549, concentrations up to 50 µM
Method: (§1) To evaluate the effects of the newly synthesized tetrahydroquinolin-2(1H)-one derivatives on cell viability, we treated human colon cancer cells HCT-116, human breast cancer cells MCF-7, and human non-small cell lung cancer cells A-549 with different concentrations of the compounds for 72 h. After incubation, the MTT (3-(4,5-dimethylthiazol-2-yl)-2,5-diphenyltetrazolium bromide) assay was performed and the cytotoxic potency of compounds (expressed in IC50) on the cells was determined in comparison to control cells treated with 1% of dimethyl sulfoxide (DMSO) (Table 1). […] We also compared the activity of 20d and 19b to the reference control drug Cisplatin, which is widely used in chemotherapy.
(§2) A-549 (CCL-185) and MCF-7 ([…]) cells were cultured in RPMI-1640 medium, while HCT-116 (CVCL-427), (hMLH1)-deficient (MMR^–) and hMLH1-proficient (MMR^+) RKO cells were cultured in McCoy’s 5A medium. The culture media were supplemented with 10% fetal bovine serum, 2 mM L-glutamine, and antibiotics (penicillin 62.6 µg/ml and streptomycin 40 µg/ml). Cultivation of cell lines was carried out at 37 °C under a humidified atmosphere containing 5% CO2, and the cultures were routinely screened for Mycoplasma contamination. A-549, MCF-7, and HCT-116 cells were obtained from American Type Culture Collection (ATCC), while RKO colon carcinoma cells were a kind gift of Dr Timothy Kinsella (Brown University, USA).
(§3) The viability of cells was determined in response to the newly synthesized compounds using the MTT (Sigma-Aldrich) assay. Briefly, cells were seeded into 96-well plates and allowed to attach overnight. Then, cells were exposed to various concentrations of compounds for 24, 48 or 72 h. Negative controls were treated with the same amount of DMSO solvent (1%). After treatment, the MTT solution (0.4 mg/ml) was added to each well and allowed to react with cells for 2–3 h at 37 °C. Next, the medium was removed, the formazan product formed was dissolved in 100 μl of DMSO, and the absorbance was determined at 540 nm using an ASYS UVM340 microplate reader (Biochrom Ltd.). The IC50 value, which represents the concentration of the compound required to inhibit cell growth by 50% compared to vehicle, was calculated using GraphPad Prism 8 software based on the curves plotting survival against dose averaged from at least three independent experiments.

A-549 cells = assay: MTT cell viability assay, A-549; format: cell-based, human; conditions: MTT, 72 h, IC50 ± SD
Method: as §1, §2, §3

MCF-7 cells = assay: MTT cell viability assay, MCF-7; format: cell-based, human; conditions: IC50 ± SD
Method: as §1, §2, §3

HEK293 cells = assay: MTT cell viability assay, HEK293; format: cell-based, human
[1] = Homo sapiens, HEK293, IC50 ± SD

SMILES | IC50 (HCT-116 cells) [µM] | IC50 (A-549 cells) [µM] | IC50 (MCF-7 cells; 72 h) [µM] | IC50 (HEK293 cells; IC50 ± SD) [µM] | cytotoxicity on tested cell lines (HCT-116 cells) | IC50 (HCT-116 cells; Homo sapiens, HCT-116, 72 h) [µM] | IC50 (A-549 cells; Homo sapiens, A549) [µM] | IC50 (MCF-7 cells; Homo sapiens, MCF7, 72 h) [µM] | IC50 (HEK293 cells; [1]) [µM] | melting point [°C]
N.N.[Cl][Pt][Cl] [Cisplatin, reference compound] | 24.9 ± 1.14 | 29.01 ± 0.12 | 33.8 ± 1.56 | 28.4 ± 1.97 | – | – | – | – | – | –
O=c1cc(-c2ccccc2)c2c([nH]1)CCCC2 [Compound 9, 4-phenyl-5,6,7,8-tetrahydro-1H-quinolin-2-one] | – | – | – | – | no cytotoxicity | > 50 | > 50 | > 50 | > 50 | –
OC1CCCc2c(-c3ccccc3)cc(Cl)nc21 (stereo not shown) [Compound 16, 2-chloro-4-phenyl-5,6,7,8-tetrahydroquinolin-8-ol] | – | – | – | – | no cytotoxicity | > 50 | > 50 | > 50 | > 50 | 88 to 90
COc1cc(-c2ccccc2)c2c(n1)C(O)CCC2 (stereo not shown) [Compound 17, 2-methoxy-4-phenyl-5,6,7,8-tetrahydroquinolin-8-ol] | – | – | – | – | no cytotoxicity | > 50 | > 50 | > 50 | > 50 | 61 to 63
O=C(Nc1ccccc1)OC1CCCc2c(-c3ccccc3)cc(Cl)nc21 (stereo not shown) [Compound 18a, (2-chloro-4-phenyl-5,6,7,8-tetrahydroquinolin-8-yl) N-phenylcarbamate] | – | – | – | – | – | 39.8 ± 2.62 | 27.2 ± 1.53 | > 50 | > 50 | 148 to 150
O=C(Nc1ccc([N+](=O)[O-])cc1)OC1CCCc2c(-c3ccccc3)cc(Cl)nc21 (stereo not shown) [Compound 18b, (2-chloro-4-phenyl-5,6,7,8-tetrahydroquinolin-8-yl) N-(4-nitrophenyl)carbamate] | – | – | – | – | no cytotoxicity | > 50 | > 50 | > 50 | > 50 | –
O=C(Nc1ccc(F)cc1)OC1CCCc2c(-c3ccccc3)cc(Cl)nc21 (stereo not shown) [Compound 18c, (2-chloro-4-phenyl-5,6,7,8-tetrahydroquinolin-8-yl) N-(4-fluorophenyl)carbamate] | – | – | – | – | – | 18.9 ± 1.26 | 23.8 ± 4.02 | > 50 | > 50 | 113 to 115
O=C(Nc1cccc(F)c1)OC1CCCc2c(-c3ccccc3)cc(Cl)nc21 (stereo not shown) [Compound 18d, (2-chloro-4-phenyl-5,6,7,8-tetrahydroquinolin-8-yl) N-(3-fluorophenyl)carbamate] | – | – | – | – | no cytotoxicity | > 50 | > 50 | > 50 | > 50 | –
O=C(Nc1ccc(Cl)cc1)OC1CCCc2c(-c3ccccc3)cc(Cl)nc21 (stereo not shown) [Compound 18e, (2-chloro-4-phenyl-5,6,7,8-tetrahydroquinolin-8-yl) N-(4-chlorophenyl)carbamate] | – | – | – | – | – | > 50 | 45.3 ± 4.2 | > 50 | > 50 | –
COc1cc(-c2ccccc2)c2c(n1)C(OC(=O)Nc1ccccc1)CCC2 (stereo not shown) [Compound 19a, (2-methoxy-4-phenyl-5,6,7,8-tetrahydroquinolin-8-yl) N-phenylcarbamate] | – | – | – | – | – | 26.2 ± 1.69 | > 50 | > 50 | > 50 | –
COc1cc(-c2ccccc2)c2c(n1)C(OC(=O)Nc1ccc(F)cc1)CCC2 (stereo not shown) [Compound 19c, (2-methoxy-4-phenyl-5,6,7,8-tetrahydroquinolin-8-yl) N-(4-fluorophenyl)carbamate] | 13 ± 2.68 | – | – | – | – | ~13 | 28.4 ± 0.56 | > 50 | > 50 | 125 to 127
COc1cc(-c2ccccc2)c2c(n1)C(OC(=O)Nc1cccc(F)c1)CCC2 (stereo not shown) [Compound 19d, (2-methoxy-4-phenyl-5,6,7,8-tetrahydroquinolin-8-yl) N-(3-fluorophenyl)carbamate] | – | – | – | – | – | 31.6 ± 0.58 | 41.1 ± 0.93 | > 50 | > 50 | –
COc1cc(-c2ccccc2)c2c(n1)C(OC(=O)Nc1ccc(Cl)cc1)CCC2 (stereo not shown) [Compound 19e, (2-methoxy-4-phenyl-5,6,7,8-tetrahydroquinolin-8-yl) N-(4-chlorophenyl)carbamate] | 13.9 ± 1.3 | – | – | – | – | ~13 | > 50 | > 50 | > 50 | 144 to 146
O=C(Nc1ccccc1)OC1CCCc2c(-c3ccccc3)cc(=O)[nH]c21 (stereo not shown) [Compound 20a, (2-oxo-4-phenyl-5,6,7,8-tetrahydroquinolin-8-yl) N-phenylcarbamate] | 13.1 ± 1.55 | – | – | – | – | ~13 | 21.8 ± 0.22 | > 50 | > 50 | 144 to 146
O=C(Nc1ccc([N+](=O)[O-])cc1)OC1CCCc2c(-c3ccccc3)cc(=O)[nH]c21 (stereo not shown) [Compound 20b, (2-oxo-4-phenyl-5,6,7,8-tetrahydroquinolin-8-yl) N-(4-nitrophenyl)carbamate] | – | – | – | – | – | > 50 | > 50 | > 50 | > 50 | 225 to 227
O=C(Nc1ccc(F)cc1)OC1CCCc2c(-c3ccccc3)cc(=O)[nH]c21 (stereo not shown) [Compound 20c, (2-oxo-4-phenyl-5,6,7,8-tetrahydroquinolin-8-yl) N-(4-fluorophenyl)carbamate] | – | – | – | – | – | 18.4 ± 2.04 | 23.8 ± 4.02 | > 50 | > 50 | –
O=C(Nc1ccc(Cl)cc1)OC1CCCc2c(-c3ccccc3)cc(=O)[nH]c21 (stereo not shown) [Compound 20e, (2-oxo-4-phenyl-5,6,7,8-tetrahydroquinolin-8-yl) N-(4-chlorophenyl)carbamate] | – | – | – | – | no cytotoxicity | > 50 | > 50 | > 50 | > 50 | –
O=C1CCCc2c(-c3ccccc3)cc(Cl)nc21 [Compound 21, 2-chloro-4-phenyl-6,7-dihydro-5H-quinolin-8-one] | – | – | – | – | no cytotoxicity | > 50 | > 50 | > 50 | > 50 | 135 to 137
COc1cc(-c2ccccc2)c2c(n1)C(=O)CCC2 [Compound 22, 2-methoxy-4-phenyl-6,7-dihydro-5H-quinolin-8-one] | – | – | – | – | no cytotoxicity | > 50 | > 50 | > 50 | > 50 | 127 to 129
O=C1CCCc2c(-c3ccccc3)cc(=O)[nH]c21 [Compound 23, 4-phenyl-1,5,6,7-tetrahydroquinoline-2,8-dione] | – | – | – | – | no cytotoxicity | > 50 | > 50 | > 50 | > 50 | 182 to 184
